Experimental findings from publication PMC12441774, “Proteolytic stabilization of a spider venom peptide results in an orally active bioinsecticide” (Pest Management Science, 2025) are described below.

The subject of one series is Musca domestica. The experiment in a line: Insecticidal activity by injection into adult house flies. The format is in vivo. The protocol:
Adult house flies (Musca domestica L.) were immobilized with CO2 gas and those with an average weight of 12–18 mg were selected for injection. Purified solutions of Ta1b and variants were diluted in water and injected into the dorsal thorax with a 1‐cc syringe and 30‐gauge needle using a hand microapplicator (Burkard, Rickmansworth, England). Each adult was injected with 0.5 μL of solution with 10 flies per treatment in at least triplicate. Water was used as a negative control. Flies were placed into a container with moist filter paper and scored for mortality 24 h post‐injection. Ten non‐injected flies were placed in a container to assess CO2 mortality. Response curves were fitted with a four‐parameter sigmoidal function (GraphPad Prism, Boston, MA) to determine LD50 values.
(§1) To compare the potency of Ta1b, we also injected the following active ingredients into M. domestica and H. zea: GS‐ω/κ (Spear, Vestaron), spinosad (Monterey Garden Insect Spray, Monterey), thiamethoxam (Optigard® Flex, Syngenta), and chlorantraniliprole (ALTACOR®, FMC).

A further series has as its system Helicoverpa zea. The experiment in a line: Insecticidal activity by injection into fourth instar larvae. It counts as in vivo. The protocol: Helicoverpa zea (Boddie, 1850) larvae were reared from eggs (Benzon, Carlisle, PA) to fourth instar on general purpose lepidopteran diet (F9772, Frontier Agricultural Sciences, Newark, DE). Pre‐weighed larvae immobilized on ice were injected into their penultimate proleg as described for M. domestica with 1 μL solution and eight larvae per treatment in at least triplicate. After injection, larvae were placed in a well of a 32‐well tray filled with 5 mL lepidopteran diet. The trays were then placed in an incubator at 28° C with 16:8 h light: dark cycle and evaluated 24 h after injection for mortality.
as §1

For another series, the system named is H. zea neonates. Nature of the series: Insecticidal activity by foliar spray (lettuce leaf disk feeding). It counts as in vivo, Helicoverpa zea. On the procedure: Organic romaine lettuce was cut into 30‐mm diameter disks and sterilized with a 140‐ppm bleach solution followed by a triple rinse in water. The lettuce disks were then sprayed on either side using a Potter Tower Sprayer (Burkard, Rickmansworth, England) with insecticidal solutions, allowing them to dry between sprays. Once fully sprayed and dried, disks were placed into an arena, which was a 32‐well rearing tray containing 5 mL of 1% w/v agar. One leaf disk was placed in each well and a single neonate H. zea was applied to each of the 12 leaf discs per treatment with four experimental replicates per treatment. The trays were then placed in a 28° C incubator with a 16:8 h light: dark cycle. Mortality was evaluated 4 days after application.

The nature of series [1]: Protease stability, commercial trypsin digestion. The format is in vitro ADME, bovine. The conditions noted are these: bovine trypsin 1 mg mL^−1 in 50 mM Tris–HCl pH 8.8, 100 mM NaCl; 5 μL added to 200 μL of 10.7 mg mL^−1 peptide; room temperature; HPLC; read-out: Degradation half life, Trypsin. On the procedure:
(§2) For commercial enzyme digestion studies, bovine trypsin (Sigma‐Aldrich, St. Louis, MO) was prepared at a concentration of 1 mg mL^−1 in 50 mM Tris–HCl pH 8.8, 100 mM NaCl. Bovine chymotrypsin (Sigma‐Aldrich) was prepared at a concentration of 1 mg ml^−1 in 50 mM MES pH 6.0, 100 mM NaCl. For each digestion condition, 5 μL of trypsin or chymotrypsin solution were added to 200 μL of 10.7 mg mL^−1 peptide and incubated at room temperature. Samples were taken at defined timepoints, sterile filtered, and analyzed immediately by HPLC.

The target in another series is T1, bovine trypsin (Bos taurus, UniProt P00760).
T1 construct: purchased Sigma-Aldrich
T1 sequence (P00760 24-246): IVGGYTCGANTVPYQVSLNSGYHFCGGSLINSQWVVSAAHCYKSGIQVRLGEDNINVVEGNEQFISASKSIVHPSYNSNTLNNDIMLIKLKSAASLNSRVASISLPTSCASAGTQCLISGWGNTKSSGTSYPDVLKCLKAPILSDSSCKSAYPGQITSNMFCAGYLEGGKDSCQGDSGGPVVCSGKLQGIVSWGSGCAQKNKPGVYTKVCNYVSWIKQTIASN
The experiment in a line: Protease stability, commercial trypsin digestion. The format is in vitro ADME. The conditions noted are these: pH 8.8, room temperature, HPLC chromatogram. On the procedure: as §2

The nature of series [2]: Gut enzyme digestion, M. sexta gut extract. It counts as in vitro ADME, Manduca sexta. The conditions noted are these: M. sexta fifth instar gut extract diluted 10× in 30 mM Tris–HCl pH 8.8, 0.5–1 mg mL^−1 peptide, HPLC, single exponential decay fit. The protocol:
(§3) Larvae of H. zea, Spodoptera frugiperda Smith and Abbot, 1797, and Trichoplusia ni Hubner, 1802 were purchased from Benzon Research and reared to fifth instar on general purpose lepidopteran diet. Manduca sexta L. were purchased from Carolina Biological Supply (Burlington, NC) and reared to fifth instar on the supplied diet. Larvae were anesthetized on ice for 30 min, pinned on a dissection plate, and opened laterally with microdissection scissors. The foregut, midgut and hindgut were excised and washed using sterile water to remove any excess hemolymph and then transferred into a chilled 2‐mL microcentrifuge tube. The extracts were spun in a microcentrifuge at 10000 g to pellet the solids. The liquid fractions were carefully removed, sterile filtered, and stored at −80°C for future use.
(§4) For gut enzyme digestion studies, gut extract was diluted 10× with the dilution buffer (30 mM Tris–HCl, pH 8.8) and 0.5–1 mg mL^−1 of Ta1b. Samples were taken from the digestion mixture at defined timepoints and mixed with a 1:6 ratio of stop buffer (Tris–HCl pH 1–2) to halt further digest of the peptide. Samples were sterile filtered and analyzed by HPLC to determine peptide integrity and concentration.

The nature of series [3]: Gut enzyme digestion, H. zea gut extract. It counts as in vitro ADME, Helicoverpa zea. The note with it: pH 8.8; extract diluted ten-fold, single exponential decay fit, HPLC; read-out: Degradation half-life in H. zea gut extract. The protocol: as §3, §4
A short description of series [4]: Gut enzyme digestion, S. frugiperda gut extract. The note with it: pH 8.8; extract diluted ten-fold, single exponential decay fit, HPLC; read-out: Degradation half-life in S. frugiperda gut extract. The format is in vitro ADME, Spodoptera frugiperda. The protocol:
as §3, §4

The nature of series [5]: Gut enzyme digestion, T. ni gut extract. The format is in vitro ADME, Trichoplusia ni. The note with it: pH 8.8; extract diluted ten-fold, single exponential decay fit, HPLC; read-out: Degradation half-life in T. ni gut extract. On the procedure: as §3, §4
Series [6] in a line: Gut enzyme digestion, stated jointly for three lepidopteran gut extracts. The format is in vitro ADME, H. zea, S. frugiperda, T. ni. The note with it: 10‐fold diluted gut extract, single exponential decay, followed up to 21 h. On the procedure:
as §3, §4

Series [7] in a line: Circular dichroism thermal denaturation. It counts as physicochemical. The conditions noted are these: CD ellipticity at 220 nm, 0.4–0.6 mg mL^−1 peptide in 10 mM sodium phosphate pH 7.0, 2°C min^−1 up to 95°C, Boltzmann sigmoidal fit, 3–4 replicates. The protocol:
Thermal denaturation profiles were collected on a Jasco‐J1500 CD spectrophotometer in a 0.2‐cm cuvette at a peptide concentration of 0.4–0.6 mg mL^−1 in 10 mM sodium phosphate, pH 7.0. Ellipticity was monitored at 220 nm every 1°C up to 95°C at a rate of 2°C min^−1. Denaturation curves were fitted with a Boltzmann sigmoidal function (GraphPad Prism) to determine the melting point (T m) for a single replicate. 3–4 replicates were run and the calculated T m values of each variant peptide was tested for a statistically significant difference relative to the rTa1b peptide or Ta1b‐QA commercial peptide, as appropriate, using an unpaired, two‐tailed, heteroscedastic student t's test (Microsoft Excel, Redmond, WA).
For orientation: Circular dichroism is the unequal absorption of left and right circularly polarised light.

In another series the test system is Myzus persicae. Nature of the series: Greenhouse trial on green peach aphids on cucumbers. It counts as in vivo. The conditions noted are these: Admire Pro 0.088 L product ha^−1; four applications. The protocol: Contact activity of Ta1b‐QA on green peach aphids (Myzus persicae (Sulzer, 1776)) on cucumbers in the greenhouse was performed in cooperation with A.C.D.S Research in North Rose, NY. The study was a randomized complete block design (RCBD), with treatments replicated six times, plots consisting of three pots each containing two to three plants. […] Treatments were applied four times, at 6–8‐day intervals, with a backpack CO2 sprayer in a spray volume of 374 L ha^−1. The number of aphids per plant was counted at regular intervals (0, 4, 11, 17, 23 and 29 d after first application). Cumulative insect‐days (defined as the area under the insect population curve as a measure of pest pressure) were calculated based on those six rating dates, then converted to % control relative to the untreated check using Abbott's formula. One replicate was removed due to a lack of pest pressure in the untreated check. Data were analyzed by one‐way ANOVA followed by a Tukey HSD LSM test with significance set at P < 0.05 (GraphPad Prism).

Setting [8] is: injection, Supplementary Figure 4.
The mark [9] stands for this setting: injection, Supplementary Table 1.

Bridges are numbered along the chain shown (N, C = ends). Where no end group is shown, it is not given here.

A word on the half-life: it is the time needed for the level to fall by half in the phase considered. For the compound “EPDEICRARMTNKEFTYKSNVCNNCGDQVAACEAECFRNDVYTACHEAQKG (disulfide 6-36, 22-32, 25-45) [Ta1b]”, the “Insecticidal LD50, injection, M. domestica (95% CI)” value in the series with Musca domestica (adult house flies 12–18 mg, 0.5 μL into dorsal thorax, mortality 24 h post‐injection, 10 flies per treatment, at least triplicate, four‐parameter sigmoidal fit) is 0.27 (0.23–0.32) nmol g^−1. Besides, the “LD50 against house flies” value in the series with Musca domestica (setting [8]) stood at 310 pmol/g. Also, the “Housefly LD50 (95%CI)” value in the series on Musca domestica (setting [9]) is 0.27 (0.23-0.32) pmol/g. The “Insecticidal LD50, injection, H. zea (95% CI)” value in the series with Helicoverpa zea (fourth instar larvae, 1 μL into penultimate proleg, mortality 24 h after injection, eight larvae per treatment, at least triplicate) was 2.4 (1.7–3.4) nmol g^−1. For the same compound, the “LD50 against H. zea” value in the series with Helicoverpa zea (setting [8]) was determined as 2560 pmol/g. In addition, in the series on Helicoverpa zea (setting [9]), the “H. zea LD50 (95%CI)” value is reported as 2.4 (1.7-3.4) pmol/g. In addition, in the series with H. zea neonates (100 μg cm^−2, neonates, compared to untreated), the “Day 4 mortality of H. zea on treated lettuce leaves, peptide alone” value was “no activity”. Further, in the series on H. zea neonates (100 μg cm^−2 peptide with sublethal Btk 0.17 μg cm^−2, neonates), the “Day 4 mortality of H. zea on treated lettuce leaves, peptide in combination with Btk” value is reported as “no activity”. Besides, in series [1], the half-life at 10.4 mg mL^-1 was found to be 288 min. At bovine trypsin, the “Digestion by bovine trypsin (HPLC)” value was “resulted in digestion of the peptide”. The “Degradation half life, Gut extract” value in series [2] is recorded as “under 2 min”. Also, the half-life in [2] (read-out: Degradation half life, Gut extract) came to 1.4 min; in series [3], 118 min; in series [4], 26.4 min; in series [5], 38.1 min. The “Degradation half‐lives in gut extracts from H. zea, S. frugiperda, and T. ni” value in series [6] lay within 0.5 to 2 h. Besides, in series [7], the “Melting temperature Tm (± SEM)” value amounted to 73.7 ± 0.4 °C.
Take `O=[N+]([O-])NC1=NCCN1Cc1ccc(Cl)nc1` [imidacloprid]: the “Mean % control of cumulative insect‐days relative to the untreated check, reference standard” value in the series on Myzus persicae came out at 90.4%.
